The values that follow are results of earlier work, collected in US20040259937A1, “Hydroxycitric acid complex metal salts, composition, and methods” (INDFRAG LIMITED, priority 2003, published 2004).

The conditions of this data set: converted to the lactone form during processing.

On to `O=C(O)CC(O)(C(=O)O)C(O)C(=O)O` (single isomer, unassigned; (-)) [(−)hydroxycitric acid], for which the “stability of pure free acid” value is given as “not stable”.
